Data published in patent publication US10040804B2, “Compounds targeting proteins, compositions, methods, and uses thereof” (BioTheryX, Inc., priority 2016, dated 2018).
Counter-ions that a name gives are not always drawn.

Legend:
IL-6 = IL-6 expression in LPS stimulated PBMCs (Meso Scale); format: cell-based, human; conditions: Homo sapiens, PBMC, LPS-stimulated PBMCs; for inhibition at 5 µM: compound concentration 5 μM; for inhibition at 10 µM: compound concentration 10 μM
Experimental: FIGS. 6 and 9B are graphs showing IL-6 expression in LPS stimulated peripheral blood mononuclear cells (PBMCs). PBMCs were plated in 96-well plates and pretreated with compound (Compound 1-9 individually) for 1 h, and then induced with 100 ng/mL LPS for 18-24 h. Cytokines were measured according to MesoScale protocol. Negative control wells were treated with DMSO. Compound activity was measured as a percentage of LPS-induced activity. “Rev” is lenalidomide.
(§1) Frozen primary blood mononuclear cells (PBMCs) and frozen CD14+ mobilized peripheral blood monocytes were purchased from AllCells. Cells were quick thawed, and washed 1-time with RPMI-1640/10% FBS/1% Penicillin/1% Streptomycin and plated in 96-well plates at 200,000 cells per well. Cells were pretreated with DMSO only, Compound 5013 (lenolidamide) or the indicated compound for 1 h and then induced with 100 ng/mL lipopolysaccharide (LPS) for 18-24 h. The supernatant was analyzed for IL-1 beta, IL-6, and TNF-α using Meso Scale assay according to manufacturer's protocol. The negative control wells were treated with DMSO.
(§2) PBMCs: AllCells PB003F, Normal Peripheral Blood MNC.
(§3) Media: RPMI 1640/10% FBS/1% Pen-Strep.

TNF-α = TNF-α expression in LPS stimulated PBMCs (Meso Scale); format: cell-based, human; conditions: Homo sapiens, PBMC; for inhibition at 5 µM: compound concentration 5 μM; for inhibition at 10 µM: compound concentration 10 μM
Experimental: FIGS. 7 and 9C are graphs showing TNF-a expression in LPS stimulated peripheral blood mononuclear cells (PBMCs). PBMCs were plated in 96-well plates and pretreated with compound (Compound 1-9 individually) for 1 h, and then induced with 100 ng/mL LPS for 18-24 h. Cytokines in the media were measured according to MesoScale protocol. The negative control wells were treated with DMSO. Compound activity is measured as a percentage of LPS-induced activity. “Rev” is lenalidomide.
as §1, §2, §3

Molm-13 cells = experiment: Molm-13 cell viability (CellTiter-Glo); format: cell-based; conditions: Homo sapiens, MOLM-13; compound concentration 10 μM; read-out: % Inhibition (MOLM-13 Cell Viability)
Experimental: FIG. 10A is a graph showing antiproliferative activity in H1048 (SCLC) cells. FIG. 10B is a graph showing antiproliferative activity in Molm-13 (AML) cells. In FIGS. 10A and 10B, the cells were incubated for 72 hrs with Compound 9 at the indicated concentrations or DMSO. Compound activity was measured based on the signal from remaining viable cells.
Molm-13 cells were cultivated in RPMI-1640 (10% FBS/1% pen-strep) and were plated in white walled 96-well plates at 20,000 cells/well. H1048 cells were cultured in DMEM:F12 media supplemented with 5% fetal bovine serum, insulin, transferrin, sodium selenite, hydrocortisone, β-estradiol, penicillin and streptomycin, and were plated in white walled 96-well plates at 20,000 cells/well. MDA-MB-231 cells were cultured in DMEM media supplemented with 10% fetal bovine serum, penicillin and streptomycin, and were plated in white walled 96-well plates at 10,000 cells/well. Cells were treated with compound or DMSO (0.1%, control) and the cultures were incubated for 3 days at 37° C. and 5% CO2. Following the incubation period, 100 μL of CellTiterGlow (CTG) reagent (CellTiter-Glo® Luminescent Cell Viability Assay, Promega (Madison, Wis.)) was added to each well. Following a 10 min incubation with shaking, luminescence was measured using a Victor Wallac Luminometer.

IL-1β = IL-1β expression in LPS stimulated PBMCs (Meso Scale); format: cell-based, human; conditions: Homo sapiens, PBMC; for inhibition at 5 µM: compound concentration 5 μM; for inhibition at 10 µM: compound concentration 10 μM
Experimental: FIGS. 5 and 9A are graphs showing IL-1-beta expression in LPS stimulated peripheral blood mononuclear cells (PBMCs), PBMCs were plated in 96-well plates and pretreated with compound (Compound 1-9 individually) for 1 h, and then induced with 100 ng/mL LPS for 18-24 h. Cytokines in the media were measured according to MesoScale protocol. Negative control wells were treated with DMSO. Compound activity is measured as a percentage of LPS-induced activity. “Rev” is lenalidomide.
as §1, §2, §3

IL-2 = experiment: anti-CD3-induced IL-2 secretion in PBMCs; format: cell-based; conditions: Homo sapiens, PBMC, anti-CD3 stimulated PBMCs, 24 h, DMSO = 1.0, read-out: Fold Change IL-2; for fold induction at 5 µM: compound concentration 5 μM; for fold induction at 10 µM: compound concentration 10 μM
Experimental: FIGS. 4 and 9D are graphs showing anti-CD3-induced IL-2 secretion in PBMCs. 1 ug/mL anti-CD3 (OKT-3) antibody in PBS were coated onto 96-well plates overnight at 4° C. Approximately 550,000 PBMCs were added to each well, followed by addition of DMSO only, Compound 1-8 at 10 μM (FIG. 4) or Compound 9 at 0.1 μM or 1 μM (FIG. 9D), or 10 μM lenalidomide (rev). Induction was measured after 24 h as fold difference from the DMSO stimulated control.
For the IL-2 analysis, 96 well plates were precoated with 1 ug/mL anti-human CD3 antibody (OKT3, eBioscience Inc.). After washing with PBS, compounds were added to the wells (50 μL/well) followed by PBMCs diluted at 3-4 million cells/mL (150 μL/well). Plates were incubated for 24 h and the supernatants collected for Mesoscale IL-2 analysis.
Compound activity was measured as fold difference from the DMSO control. IL-1-beta activity is shown in FIG. 1; IL-6 activity is shown in FIG. 2; TNF-α activity is shown in FIG. 3; and IL-2 activity is shown in FIG. 4.

| Compound | inhibition at 5 µM (IL-6) [%] | inhibition at 5 µM (TNF-α) [%] | cytotoxicity at 10 µM (Molm-13 cells) [%] | inhibition at 5 µM (IL-1β) [%] | fold induction at 5 µM (IL-2) | inhibition at 10 µM (IL-6) [%] | inhibition at 10 µM (TNF-α) [%] | inhibition at 10 µM (IL-1β) [%] | fold induction at 10 µM (IL-2) |
| --- | --- | --- | --- | --- | --- | --- | --- | --- | --- |
| O=C1CCC[C@H](N2Cc3ccsc3C2=O)C(=O)N1 [Compound 1, (S)-3-(6-oxo-4,6-dihydro-5H-thieno[2,3-c]pyrrol-5-yl)azepane-2,7-dione] | 0 | 22 | 6 | 25 | 0.8 |  |  |  |  |
| O=C1CCC[C@H](N2Cc3sccc3C2=O)C(=O)N1 [Compound 2, (S)-3-(4-oxo-4,6-dihydro-5H-thieno[2,3-c]pyrrol-5-yl)azepane-2,7-dione] | 31 | 65 | 32 | 88 | 1.9 |  |  |  |  |
| O=C1CCC[C@H](N2C(=O)c3ccsc3C2=O)C(=O)N1 [Compound 3, (S)-5-(2,7-dioxoazepan-3-yl)-4H-thieno[2,3-c]pyrrole-4,6(5H)-dione] |  |  | 0 |  |  | 0 | 0 | 0 | 0.9 |
| O=C1NCCCC[C@@H]1N1Cc2sccc2C1=O [Compound 4, (S)-5-(2-oxoazepan-3-yl)-5,6-dihydro-4H-thieno[2,3-c]pyrrol-4-one] |  |  | 0 |  |  | 0 | 0 | 0 | 0.7 |
| O=C1CCC[C@@H](N2Cc3sccc3C2=O)C(=O)N1 [Compound 5, (R)-3-(4-oxo-4,6-dihydro-5H-thieno[2,3-c]pyrrol-5-yl)azepane-2,7-dione] |  |  | 24 |  |  | 1 | 0 | 0 | 1.4 |
| O=C1C[C@H](N2Cc3sccc3C2=O)C(=O)N1 [Compound 6, (S)-3-(4-oxo-4,6-dihydro-5H-thieno[2,3-c]pyrrol-5-yl)pyrrolidine-2,5-dione] |  |  | 0 |  |  | 8 | 16 | 14 | 1 |
| O=C1CCC[C@H](N2Cc3cscc3C2=O)C(=O)N1 [Compound 7, (S)-3-(4-oxo-4H-thieno[3,4-c]pyrrol-5(6H)-yl)azepane-2,7-dione] |  |  | 24 |  |  | 47 | 41 | 60 | 1.7 |
| Cc1scc2c1CN([C@H]1CCCC(=O)NC1=O)C2=O [Compound 8, (S)-3-(1-methyl-4-oxo-4H-thieno[3,4-c]pyrrol-5(6H)-yl)azepane-2,7-dione] |  |  | 42 |  |  | 71 | 71 | 80 | 1 |
| O=C1CCC[C@H](N2Cc3c(csc3C3CCCC3)C2=O)C(=O)N1 [Compound 10, (S)-3-(1-Cyclopentyl-4-oxo-4H-thieno[3,4-c]pyrrol-5(6H)-yl)azepane-2,7-dione] |  |  | 18 |  |  | 13 | 37 | 21 | 0.6 |
| Cc1cc2c(s1)CN([C@H]1CCCC(=O)NC1=O)C2=O [Compound 11, (S)-3-(2-Methyl-4-oxo-4,6-dihydro-5H-thieno[2,3-c]pyrrol-5-yl)azepane-2,7-dione] |  |  | 18 |  |  | 26 | 46 | 65 | 2.6 |
| CC(C)c1scc2c1CN([C@H]1CCCC(=O)NC1=O)C2=O [Compound 12, (S)-3-(1-Isopropyl-4-oxo-4H-thieno[3,4-c]pyrrol-5(6H)-yl)azepane-2,7-dione] |  |  | 31 |  |  | 0 | 56 | 52 | 0.8 |
| O=C1CCC[C@H](N2Cc3c(csc3Br)C2=O)C(=O)N1 [Compound 13, (S)-3-(1-Bromo-4-oxo-4H-thieno[3,4-c]pyrrol-5(6H)-yl)azepane-2,7-dione] |  |  | 0 |  |  | 66 | 84 | 90 | 1.2 |
| O=C1CCC[C@H](N2Cc3sc(Br)cc3C2=O)C(=O)N1 [Compound 14, (S)-3-(2-Bromo-4-oxo-4,6-dihydro-5H-thieno[2,3-c]pyrrol-5-yl)azepane-2,7-dione] |  |  | 0 |  |  | 65 | 85 | 88 | 1.5 |
| O=C1CCC[C@H](N2C(=O)c3csc([N+](=O)[O-])c3C2=O)C(=O)N1 [Compound 15, (S)-5-(2,7-Dioxoazepan-3-yl)-1-nitro-4H-thieno[3,4-c]pyrrole-4,6(5H)-dione] |  |  | 19 |  |  | 56 | 55 | 67 | 0.7 |
| Nc1scc2c1C(=O)N([C@H]1CCCC(=O)NC1=O)C2=O [Compound 16, (S)-1-Amino-5-(2,7-dioxoazepan-3-yl)-4H-thieno[3,4-c]pyrrole-4,6(5H)-dione] |  |  | 23 |  |  | 51 | 78 | 80 | 2.2 |
| N#Cc1scc2c1CN([C@H]1CCCC(=O)NC1=O)C2=O [Compound 17, (S)-5-(2,7-Dioxoazepan-3-yl)-4-oxo-5,6-dihydro-4H-thieno[3,4-c]pyrrole-1-carbonitrile] |  |  | 21 |  |  | 14 | 26 | 4 | 1 |
| NCc1scc2c1CN([C@H]1CCCC(=O)NC1=O)C2=O [Compound 18, (S)-3-(1-(Aminomethyl)-4-oxo-4H-thieno[3,4-c]pyrrol-5(6H)-yl)azepane-2,7-dione 2,2,2-trifluoroacetic Acid Salt] |  |  | 3 |  |  | 32 | 48 | 36 | 0.9 |
| O=C1CCC[C@H](N2Cc3c(csc3C(F)F)C2=O)C(=O)N1 [Compound 19, (S)-3-(1-(Difluoromethyl)-4-oxo-4H-thieno[3,4-c]pyrrol-5(6H)-yl)azepane-2,7-dione] |  |  | 29 |  |  | 78 | 59 | 79 | 4 |
